Test results reported in patent US20030109523A1, “Bicyclic antagonists selective for the alphavbeta3 integrin” (Wyeth, priority 1999, published 2003).
Where a name gives a salt, the structure may show the parent alone.

What was measured:
[1] = biological target: T1, αIIbβ3 integrin (Homo sapiens, UniProt P05106+P08514); assay: ADP-Induced Platelet Aggregation; type: cell-based; conditions: Table VII; for IC50: ADP 20 uM, human platelets, read-out: Platelet Aggregation αIIbβ3 IC50
T1 construct: Human Platelets: Platelet-enriched plasma was obtained commercially from a donor pool; from tissue; host or cells: human platelet-rich plasma from a commercial donor pool
T1 sequence (P08514 32-887 limits assumed): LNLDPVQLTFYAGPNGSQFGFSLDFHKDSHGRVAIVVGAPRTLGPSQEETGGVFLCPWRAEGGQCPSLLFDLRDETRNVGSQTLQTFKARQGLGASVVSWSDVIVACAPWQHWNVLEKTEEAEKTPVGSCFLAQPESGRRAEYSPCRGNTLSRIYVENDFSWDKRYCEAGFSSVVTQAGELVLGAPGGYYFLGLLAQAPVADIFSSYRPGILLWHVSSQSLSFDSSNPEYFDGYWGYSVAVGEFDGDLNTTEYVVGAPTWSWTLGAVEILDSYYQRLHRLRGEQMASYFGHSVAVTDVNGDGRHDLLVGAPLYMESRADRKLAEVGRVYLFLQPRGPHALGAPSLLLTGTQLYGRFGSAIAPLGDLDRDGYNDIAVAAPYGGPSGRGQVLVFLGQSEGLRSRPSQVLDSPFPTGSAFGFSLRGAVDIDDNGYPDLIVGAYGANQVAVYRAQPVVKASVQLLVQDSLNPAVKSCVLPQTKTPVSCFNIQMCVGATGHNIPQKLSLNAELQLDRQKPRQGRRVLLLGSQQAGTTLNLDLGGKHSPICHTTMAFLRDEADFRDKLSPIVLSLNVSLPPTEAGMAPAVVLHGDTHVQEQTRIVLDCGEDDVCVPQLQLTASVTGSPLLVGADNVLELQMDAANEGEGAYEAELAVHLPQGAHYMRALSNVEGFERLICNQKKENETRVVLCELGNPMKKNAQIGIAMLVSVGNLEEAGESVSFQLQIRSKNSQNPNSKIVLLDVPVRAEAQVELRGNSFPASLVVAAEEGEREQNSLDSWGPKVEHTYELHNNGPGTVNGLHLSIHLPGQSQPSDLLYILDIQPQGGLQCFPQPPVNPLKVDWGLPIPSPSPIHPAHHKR
T1 sequence (P08514 891-1039 partner limits assumed): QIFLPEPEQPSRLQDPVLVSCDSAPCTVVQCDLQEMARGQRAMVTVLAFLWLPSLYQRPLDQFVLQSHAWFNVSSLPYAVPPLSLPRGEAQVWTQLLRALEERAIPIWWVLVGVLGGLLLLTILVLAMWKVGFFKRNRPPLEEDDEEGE
T1 sequence (P05106 27-788): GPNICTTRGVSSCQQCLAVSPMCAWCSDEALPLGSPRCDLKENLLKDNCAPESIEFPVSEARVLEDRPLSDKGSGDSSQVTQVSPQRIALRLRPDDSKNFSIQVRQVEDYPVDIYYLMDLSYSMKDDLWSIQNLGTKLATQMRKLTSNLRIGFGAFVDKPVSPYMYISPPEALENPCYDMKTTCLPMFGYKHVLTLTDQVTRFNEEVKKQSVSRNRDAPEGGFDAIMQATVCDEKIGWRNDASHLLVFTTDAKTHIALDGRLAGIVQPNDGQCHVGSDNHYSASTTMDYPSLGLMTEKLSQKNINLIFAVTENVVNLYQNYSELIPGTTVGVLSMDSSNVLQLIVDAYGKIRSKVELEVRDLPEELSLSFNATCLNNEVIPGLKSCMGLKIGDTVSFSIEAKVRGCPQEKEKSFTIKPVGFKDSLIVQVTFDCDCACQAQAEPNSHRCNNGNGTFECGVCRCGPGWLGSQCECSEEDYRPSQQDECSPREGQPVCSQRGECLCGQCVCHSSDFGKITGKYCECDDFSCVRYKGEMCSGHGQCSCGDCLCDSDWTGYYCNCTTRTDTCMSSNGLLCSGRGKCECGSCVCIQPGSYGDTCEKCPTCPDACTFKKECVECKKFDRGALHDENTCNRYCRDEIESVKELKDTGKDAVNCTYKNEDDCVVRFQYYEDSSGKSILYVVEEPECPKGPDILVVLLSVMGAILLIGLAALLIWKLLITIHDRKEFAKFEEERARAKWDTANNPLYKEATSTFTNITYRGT
Protocol: Measurement of the Effect of Compounds on ADP-Induced Platelet Aggregation
Measuring the effect of compounds on ADP-induced platelet aggregation mediated by a fibrinogen-αIIbβ3 integrin interaction.
Human Platelets: Platelet-enriched plasma was obtained commercially from a donor pool. The plasma was tested prior to shipment and found to be negative for HIV, HCV and Hepatitis B. Platelet-rich plasma (PRP) was obtained by diluting plasma to an approximate final concentration of 3×10(6) platelets per mL in platelet poor plasma (PPP). PPP was the supernatant of a lowspeed centrifugation of plasma.
Adenosine diphosphate (ADP): ADP was obtained commercially and diluted to 1 mM (stock solution) in distilled, deionized water (ddH2O).
Incubation: PRP and PPP were prewarmed in a water bath at 37° C. […] PRP plus sample compound in a final volume of 500 uL was added to a pre-warmed cuvette in a ChronoLog aggregometer. A control containing PRP and 5 uL of vehicle was treated similarly to the test cuvette; final vehicle concentration was 1%. The two cuvettes were incubated with stirring (1000 rpm) at 37° C. for 5 minutes. Five hundred microliters of PPP was used as a reference (100% aggregation).
Aggregation: To begin the test, ADP was added yielding a final concentration of 20 uM to both samples (plus and minus sample compound). Light transmittance was monitored continuously and compared to the reference cuvette. After five minutes, the test was terminated and the slope and maximal amplitude of the resulting aggregation plot was calculated by the aggregometer.
The percent of maximal aggregation is the ratio of the maximal aggregations of the sample cuvette to the control multiplied by 100 (% Max) and reported as the mean+−standard deviation.

[2] = biological target: T2, αVβ3 integrin (Homo sapiens, UniProt P05106+P06756); assay: Osteopontin-αVβ3 Cell Attachment Test Procedure; type: cell-based; conditions: for IC50: attachment of cells to osteopontin, read-out: (αVβ3) IC50 CELL ATTACHMENT
T2 construct: αVβ3-expressing cell lines are maintained by standard tissue culture techniques; endogenous in cells; host or cells: αVβ3-expressing cell lines
T2 sequence (P06756 31-889 limits assumed): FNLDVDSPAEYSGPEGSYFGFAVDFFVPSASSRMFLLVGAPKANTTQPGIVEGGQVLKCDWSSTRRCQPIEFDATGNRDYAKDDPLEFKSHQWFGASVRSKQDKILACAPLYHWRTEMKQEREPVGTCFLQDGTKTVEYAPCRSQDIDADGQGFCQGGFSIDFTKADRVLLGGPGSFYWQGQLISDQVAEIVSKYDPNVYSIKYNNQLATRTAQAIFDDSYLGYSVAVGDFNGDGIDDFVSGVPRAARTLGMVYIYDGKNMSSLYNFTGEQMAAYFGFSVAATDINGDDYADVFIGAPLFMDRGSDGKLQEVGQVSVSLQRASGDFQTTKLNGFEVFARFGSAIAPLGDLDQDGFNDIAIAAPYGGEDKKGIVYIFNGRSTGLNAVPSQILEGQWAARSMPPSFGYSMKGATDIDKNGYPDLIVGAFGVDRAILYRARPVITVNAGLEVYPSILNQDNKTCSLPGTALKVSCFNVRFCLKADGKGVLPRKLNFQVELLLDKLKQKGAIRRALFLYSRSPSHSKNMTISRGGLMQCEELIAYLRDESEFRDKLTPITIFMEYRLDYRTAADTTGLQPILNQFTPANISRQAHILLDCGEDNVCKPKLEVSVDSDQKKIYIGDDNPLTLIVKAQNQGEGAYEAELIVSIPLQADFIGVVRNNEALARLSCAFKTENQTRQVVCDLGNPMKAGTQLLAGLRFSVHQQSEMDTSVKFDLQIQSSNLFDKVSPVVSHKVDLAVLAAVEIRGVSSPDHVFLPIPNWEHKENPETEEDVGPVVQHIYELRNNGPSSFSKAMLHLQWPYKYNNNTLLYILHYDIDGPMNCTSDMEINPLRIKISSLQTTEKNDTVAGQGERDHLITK
T2 sequence (P06756 891-1048 partner limits assumed): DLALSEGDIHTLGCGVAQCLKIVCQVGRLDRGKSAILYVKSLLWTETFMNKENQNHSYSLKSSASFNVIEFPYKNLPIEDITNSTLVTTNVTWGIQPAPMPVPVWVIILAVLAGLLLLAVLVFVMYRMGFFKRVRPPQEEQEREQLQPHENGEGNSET
T2 sequence (P05106 27-788): as the sequence (P05106 27-788) above
Protocol: Osteopontin-αVβ3 Cell Attachment Test Procedure
Measuring the effect of compounds on the RGD-dependent attachment of cells to osteopontin mediated by the αVβ3 integrin.
Following incubation the wells were aspirated and washed once with D-PBS; plates can either be used immediately or stored for up to 1 week at 4° C. Prior to assay, the wells were blocked with 1% bovine serum albumin (BSA) in cell suspension media for 1 hour at 37° C. Following the blocking period, wells were aspirated and washed once with D-PBS.
αVβ3-expressing cell lines are maintained by standard tissue culture techniques. […] The cells were pelleted by low-speed centrifugation and washed three times with 0.5 mg/mL trypsin inhibitor in D-PBS (Sigma). The final cell pellet was resuspended in cell suspension media at a concentration of 10^6 cells/mL.
Incubation: 100 μL of diluted test compound was added to osteopontin-coated wells (in triplicate) followed by 100 μL of cell suspension; background cell attachment was determined in uncoated wells. The plate was incubated at 25° C. in a humidified air atmosphere for 1.5 hours. Following the incubation period, the wells were gently aspirated and washed once with D-PBS.
Cell Number Detection: The number of cells attached was determined by an MTT dye conversion assay (Promega) according to the manufacturer's instructions. Briefly, MTT dye was diluted in cell suspension media (15:85) and 100 μL was added to each well. […] The assay plates were covered and incubated at 37° C. in a humidified air atmosphere overnight.
The individual well optical density was expressed as a percentage of the maximal attachment (% Max) wells minus background attachment, and reported as the mean ±standard deviation.

[3] = test system: osteoclasts; assay: Osteoclast Bone Pitting; type: cell-based, rat
Protocol: Osteoclast Bone Pitting The test procedure was conducted as described by R. J. Murrills and D. W. […] At this pH the adherent osteoclasts excavate an adequate number of resorption pits for assay purposes. Slices were fixed in 2.5% glutaraldehyde and osteoclasts counted following tartrate-resistant acid phosphatase staining. […] All cells were stripped from the slice by sonication on 0.25M NH4OH and the resorption pits formed by the osteoclasts during the experiment stained with toluidine blue. Resorption pits were quantified by manually counting. The experiments were conducted according to a block design with osteoclasts from each animal exposed to each treatment. Three replicate slices were used per treatment per animal, such that a total of 96 slices were examined for an experiment involving four animals and eight treatments (including control). Several parameters were recorded on a “per slice” basis: number of pits, number of osteoclasts, number of pits per osteoclast, number of fibroblast-like bone cells. SAS or JMP statistical software were used for statistical analysis. […] IC50s were calculated using dose-response curves.

[4] = biological target: T3, Vitronectin Receptor (αVβ3) (Homo sapiens, UniProt P05106+P06756); assay: Vitronectin Receptor (αVβ3) Binding Test Procedure; conditions: for IC50: read-out: (αVβ3) IC50 RECEPTOR BINDING
T3 construct: expressed in transfected cells; host or cells: 512P5 cells (plasma membrane preparation)
T3 sequence (P06756 31-889 limits assumed): as the sequence (P06756 31-889 limits assumed) above
T3 sequence (P06756 891-1048 partner limits assumed): as the sequence (P06756 891-1048 partner limits assumed) above
T3 sequence (P05106 27-788): as the sequence (P05106 27-788) above

[5] = @200 μM, percent of maximal aggregation
[6] = % of maximal attachment, read-out: (αVβ3) CELL ATTACHMENT, % @ concentration
[7] = @ 100 μM, % of maximal attachment, read-out: (αVβ3) CELL ATTACHMENT, % @ concentration
[8] = @ 30 μM, % Max = percentage of the specific binding, read-out: (αVβ3) RECEPTOR BINDING, % @ concentration

CCn1c(=O)c(CC(=O)O)cc2ccc(OCCCN)cc21.O=C(O)C(F)(F)F
melting point: 182 to 184 °C

NCCCOc1ccc2cc(CC(=O)O)c(=O)n(Cc3ccccc3)c2c1 (as salt: salt) [Example 136, [1-Benzyl-7-(3-amino-propoxy)-2-oxo-1,2-dihydro-quinolin-3-yl]-acetic Acid]
melting point: 126 to 128 °C

NCCCOc1ccc2c(c1)NC(=O)C(CC(=O)O)C2 (centres unmarked) (as salt: salt) [Example 205, [7-(3-Amino-propoxy)-2-oxo-1,2,3,4-tetrahydro-quinolin-3-yl]-acetic Acid]
melting point: 194 to 196 °C

N=C(N)NCCOc1ccc2c(c1)CC(CCC(=O)O)C(=O)N2 (centres unmarked) (as salt: salt) [Example 222, 3-[6-(2-Guanidino-ethoxy)-2-oxo-1,2,3,4-tetrahydro-quinolin-3-yl]-propionic Acid]
melting point: 119 to 122 °C

N=C(N)NCCCCOc1ccc2c(c1)CC(CC(=O)O)C(=O)N2 (centres unmarked) (as salt: salt) [Example 229, [6-(4-Guanidino-butoxy)-2-oxo-1,2,3,4-tetrahydro-quinolin-3-yl]-acetic Acid]
melting point: 170 to 173 °C

N=C(N)NCCCCCOc1cccc2c1NC(=O)C(CC(=O)O)C2 (centres unmarked) (as salt: salt) [Example 250, [8-(5-Guanidino-pentoxy)-2-oxo-1,2,3,4-tetrahydro-quinolin-3-yl]-acetic Acid]
melting point: 126 to 131 °C

N=C(N)NCCOc1ccc2cc(CC(=O)O)c(=O)[nH]c2c1 (as salt: trifluoroacetate) [Example 185, [7-(2-Guanidino-ethoxy)-2-oxo-1,2-dihydro-quinolin-3-yl]-acetic Acid]
melting point: 219 to 220 °C

N=C(N)NCCCOc1ccc2cc(CC(=O)O)c(=O)n(Cc3ccccc3)c2c1 [Example 155, [1-Benzyl-7-(3-guanidino-propoxy)-2-oxo-1,2-dihydro-quinolin-3-yl]-acetic Acid]
melting point: 132 to 134 °C
remaining activity at 200 µM [1, 5]: 83.7%

N=C(N)NCCCOc1ccc2cc(CC(=O)O)c(=O)[nH]c2c1.O=C(O)C(F)(F)F [Example 186, [7-(3-Guanidino-propoxy)-2-oxo-1,2-dihydro-quinolin-3-yl]-acetic Acid Trifluoroacetate]
remaining activity at 20 µM [2, 6]: 113%
remaining activity at 100 µM [2, 7]: 68.9%
melting point: 195 to 198 °C

N=C(N)NCCNC(=O)c1ccc2c(c1)NC(=O)C(CC(=O)O)C2 (centres unmarked) [Example 200, [7-(2-Guanidino-ethylcarbamoyl)-2-oxo-1,2,3,4-tetrahydro-quinolin-3-yl]-acetic Acid Hydrochloride]
IC50 [2]: 145 µM
inhibition at 254 µM ([3]; Rattus norvegicus, Osteoclast, @ 254 μM): 20%
remaining activity at 100 µM ([4]; @ 100 μM, % Max = percentage of the specific binding, read-out: (αVβ3) RECEPTOR BINDING, % @ concentration): 31.4%
remaining activity at 200 µM [1, 5]: 94%

N=C(N)NCCCNC(=O)c1ccc2c(c1)NC(=O)C(CC(=O)O)C2 (centres unmarked) [Example 201, [7-(3-Guanidino-propylcarbamoyl)-2-oxo-1,2,3,4-tetrahydro-quinolin-3-yl]-acetic Acid Hydrochloride]
IC50 [2]: 25.4 µM
inhibition at 256 µM ([3]; Rattus norvegicus, Osteoclast, @ 256 μM): 45%
IC50 [4]: 5.8 µM
remaining activity at 200 µM [1, 5]: 85%

N=C(N)NCCCCNC(=O)c1ccc2c(c1)NC(=O)C(CC(=O)O)C2 (centres unmarked) [Example 202, [7-(4-Guanidino-butylcarbamoyl)-2-oxo-1,2,3,4-tetrahydro-quinolin-3-yl]-acetic Acid Hydrochloride]
IC50 [2]: 86 µM
inhibition at 240 µM ([3]; Rattus norvegicus, Osteoclast, @ 240 μM): 37%
remaining activity at 30 µM [4, 8]: 50%
IC50 [1]: 87 µM

NCCOc1ccc2c(c1)NC(=O)C(CC(=O)O)C2 (centres unmarked) [Example 204, [7-(2-Amino-ethoxy)-2-oxo-1,2,3,4-tetrahydro-quinolin-3-yl]-acetic Acid]
melting point: 205 to 208 °C

O=C(O)CC1CCc2cc(OCCCNC3=NCCCN3)ccc2C1 (centres unmarked) [Example 214, {6-[3-(1,4,5,6-Tetrahydro-pyrimidin-2-ylamino)-propoxy]-1,2,3,4-tetrahydro-naphthalen-2-yl}-acetic Acid]
IC50 [2]: 0.479 µM
inhibition at 19 µM ([3]; Rattus norvegicus, Osteoclast, @ 19 μM): 19%
IC50 [4]: 0.42 µM
remaining activity at 200 µM [1, 5]: 58%

COC(=O)CC1CCc2cc(OCCCNC3=NCCCN3)ccc2C1 (centres unmarked) [Example 215]
IC50 [2]: 37.4 µM
inhibition at 200 µM ([3]; Rattus norvegicus, Osteoclast, @ 200 μM): 90%
IC50 [4]: 2 µM
IC50 [1]: 151 µM

N=C(N)NCCCOc1ccc2c(c1)CC(CC(=O)O)C(=O)N2 (centres unmarked) [Example 228, [6-(3-Guanidino-propoxy)-2-oxo-1,2,3 4-tetrahydro-quinolin-3-yl]-acetic Acid]
(αVβ3) CELL ATTACHMENT, % @ concentration ([2]; @ 100 μM, % of maximal attachment): 88%@ 100
BONE PITTING INHIBITION ([3]; @ 230 μM): 7%@ 230
(αVβ3) RECEPTOR BINDING, % @ concentration ([4]; @ 30 μM, % Max = percentage of the specific binding): 57%@ 30
Percent of Maximal [1, 5]: 83.7@200%

N=C(N)NCCCCOc1ccc2c(c1)CC(CC(=O)O)C(=O)N2 (centres unmarked) [Example 229, [6-(4-Guanidino-butoxy)-2-oxo-1,2,3,4-tetrahydro-quinolin-3-yl]-acetic Acid]
remaining activity at 100 µM [2, 7]: 82%
inhibition at 214 µM ([3]; Rattus norvegicus, Osteoclast, @ 214 μM): 2%
remaining activity at 30 µM [4, 8]: 100%
IC50 [1]: 146 µM

N=C(N)NCCCCOc1ccc2[nH]c(=O)c(CC(=O)O)cc2c1 [Example 238, [6-(4-Guanidino-butoxy)-2-oxo-1,2-dihydro-quinolin-3-yl]-acetic Acid Trifluoroacetic Acid Salt]
remaining activity at 20 µM [2, 6]: 102%
remaining activity at 100 µM [2, 7]: 97.9%
inhibition at 215 µM ([3]; Rattus norvegicus, Osteoclast): -20%
remaining activity at 30 µM [4, 8]: 100%
remaining activity at 200 µM [1, 5]: 94%

N=C(N)NCCOc1ccc2cc(CCC(=O)O)c(=O)[nH]c2c1.O=[N+]([O-])O [Example 247, 3-[7-(2-Guanidino-ethoxy)-2-oxo-1,2-dihydro-quinolin-3-yl]-propionic Acid Nitric Acid Salt]
melting point: 211 °C (dec.)
remaining activity at 200 µM [1, 5]: 100%

N=C(N)NCCCCCOc1cccc2c1NC(=O)C(CC(=O)O)C2 (centres unmarked) [Example 250, [8-(5-Guanidino-pentoxy)-2-oxo-1,2,3,4-tetrahydro-quinolin-3-yl]-acetic Acid]
remaining activity at 10 µM ([2]; @ 10 μM, % of maximal attachment, read-out: (αVβ3) CELL ATTACHMENT, % @ concentration): 90%
remaining activity at 100 µM [2, 7]: 89%
inhibition at 215 µM ([3]; Rattus norvegicus, Osteoclast): -5%
remaining activity at 30 µM [4, 8]: 102%
remaining activity at 200 µM [1, 5]: 69%
